In ChEMBL document CHEMBL1145120, “Molecular modeling of the three-dimensional structure of dopamine 3 (D3) subtype receptor: discovery of novel and potent D3 ligands through a hybrid pharmacophore- and structure-based database searching approach” (J Med Chem, 2003) one finds Ki data, which are given here for 34 molecules.

T1 sequence (P35462 whole entry): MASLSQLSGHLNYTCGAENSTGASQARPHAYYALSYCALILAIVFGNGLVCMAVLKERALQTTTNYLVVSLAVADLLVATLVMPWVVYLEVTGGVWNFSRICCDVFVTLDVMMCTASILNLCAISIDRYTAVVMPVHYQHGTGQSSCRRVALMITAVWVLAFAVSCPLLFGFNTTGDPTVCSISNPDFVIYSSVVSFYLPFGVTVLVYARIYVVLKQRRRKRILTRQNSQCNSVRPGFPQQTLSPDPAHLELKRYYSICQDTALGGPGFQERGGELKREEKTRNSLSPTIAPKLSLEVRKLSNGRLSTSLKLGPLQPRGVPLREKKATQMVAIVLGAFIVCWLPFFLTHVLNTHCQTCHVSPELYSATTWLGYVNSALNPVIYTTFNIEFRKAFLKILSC

One experiment has as its target T1, D(3) dopamine receptor (Homo sapiens, UniProt P35462). Put plainly: biochemical.
In turn, `CCCN(CCC)C1CCc2cc3c(cc2C1)OCC3` (centres undefined) came in with a Ki of 13 nM. That is a double-digit nanomolar value.

For the molecule `CCCN[C@@H]1CCc2c(OC)cccc2[C@@H]1C`, affinity was put at a Ki of 70 nM. For `OC1(c2ccc(Cl)cc2)CCN(Cc2c[nH]c3ccccc23)CC1`, the Ki amounted to 60 nM.

In turn, `CCN(CC)CCNC(=O)c1cc(Cl)c(N)cc1OC` [METOCLOPRAMIDE] showed a Ki of 27 nM.

For the next experiment, the target named is T1, D(3) dopamine receptor.
Experiment: not given
On to `CCCCN1CCCC1CNC(=O)c1cc(C#N)c2ccccc2c1OC` (centres undefined) [NAFADOTRIDE], for which the Ki stood at 0.81 nM. This counts as sub-nanomolar.

The target of another experiment is T1, D(3) dopamine receptor.
Experiment: not given
The source holds these as a separate data set.
Regarding `O=C(OC1(c2nccc3ccccc23)CCN(CCc2ccccc2)CC1)c1ccccc1`, the Ki came to 1000 nM.

In turn, `CCC(=O)OC1(c2ccccc2)CCN(CCC(=O)c2ccccc2)CC1C` (centres undefined) yielded a Ki of 10000 nM. This Ki lies about 10-fold higher than the previous one.

On to `CCCCN(CC)CC(C(C)=O)C1=C(O)OC2C=CC=CC2C1=O` (centres undefined), for which the Ki worked out at 10000 nM. For `c1ccc2c3c([nH]c2c1)CCN1CCN(CCc2ccncc2)CC31` (centres undefined), the affinity, expressed as Ki, was 10000 nM. As for `CCn1c2ccccc2c2cc(NCCCN(C)C)ccc21`, the Ki turned out to be 10000 nM. On to `CCCN(CCC)CN1C(=O)c2ccccc2C1=O`, for which the Ki worked out at 10000 nM. Take `CCCCN1CN(CCCC)CN(C(=S)c2c(Cl)cccc2Cl)C1`: the Ki is 10000 nM. `Cc1ccc(C)c2c1Sc1c(ccc3ccccc13)N2CCCN(C)C` registered a Ki of 442 nM. Compared with the last molecule, the Ki is about 23-fold lower.

For the molecule `CCC(=O)OC1(c2ccccc2)CCN(CCCC(=O)c2ccccc2)CC1`, the affinity corresponds to a Ki of 429 nM. In the case of `CCCCN1CSC(=S)N(Cc2ccccc2)C1`, the affinity, expressed as Ki, was 10000 nM. As to `O=C(CCCCN1CCN2c3ccccc3CCC2C1)c1ccccc1` (centres undefined), the affinity corresponds to a Ki of 297 nM. `CCCN(CCC)CCC(O)c1cc2c(c3ccccc13)CCCC2` (centres undefined) registered a Ki of 1260 nM. `CCOc1ccc(NC(=O)C2CCCN(CCc3ccccc3)C2)cc1` (centres undefined): the Ki was 10000 nM. Compared with the last molecule, the Ki is about 7.9-fold higher. On the same count and under the same terms, the same measure for `CCCCN(CCCC)Cc1c(C)nc2cc(OC)ccc2c1O`: 10000 nM; for `CCCCCN1CCN(C(CC(=O)c2ccccc2)C(=O)c2ccccc2)CC1` (centres undefined): 10000 nM. Molecule `OC(CCCN1CCN2CCc3[nH]c4ccccc4c3C2C1)c1ccc(F)cc1` (centres undefined) showed a Ki of 2410 nM. This Ki is about 4.1-fold lower than that of the molecule before.

In the case of `CCCCN1C/C(=C\c2ccc(Br)cc2)C(=O)/C(=C/c2ccc(Br)cc2)C1`, the affinity corresponds to a Ki of 1000 nM. In turn, `O=C(CCCN1CCN2c3ccccc3CCC2C1)c1ccc(F)cc1` (centres undefined) displayed a Ki of 83.5 nM. `Cc1ccc2c(c1)Sc1c(ccc3ccccc13)N2CCCN(C)C` returned a Ki of 1420 nM. On the same count and under the same terms, for `N#CCCN(CCCN1CCOCC1)CN1C(=O)c2ccccc2C1=O` the value was 10000 nM. The same measure, in the same setting: for `O=C(CCN1CCN2c3ccccc3CCC2C1)c1ccc(F)cc1` (centres undefined) the value was 465 nM; for `CCN(CC)CCCN(C)Cc1c(-c2ccccc2)oc(-c2ccccc2)c1Cl`, 1380 nM; for `CCCCCCCN1CCC(C(=O)CC)(c2cccc(O)c2)CC1`, 2610 nM. The molecule `CC(=O)NCC1(c2ccccc2)CCN(CCCC(=O)c2ccc(F)cc2)CC1` [ACEPERONE] had a Ki of 10000 nM. On to `CN(C)C(=O)C1(c2ccc(Cl)cc2)CCN(CCCC(=O)c2ccc(F)cc2)CC1` [AMIPERONE], for which affinity was put at a Ki of 43.2 nM. Still for that read-out and setting: the same measure for `O=C(CCCN1CCN2Cc3[nH]c4ccccc4c3CC2C1)c1ccc(F)cc1` (centres undefined) [BIRIPERONE]: 11 nM; for `O=c1[nH]c2ccccc2n1CCCN1CCN(C(c2ccccc2)c2ccccc2)CC1` [OXATOMIDE]: 62.7 nM.

A further experiment deals with T1, D(3) dopamine receptor. Nature of the experiment: Compound was measured for its ability to compete with [3H]spiperone binding to the human Dopamine receptor D3 transfected in CHO cells. In kind it is cell-based.
As to `CCCN1CCOC2c3cc(O)ccc3OC[C@H]21` (some centres undefined), affinity was put at a Ki of 1.1 nM. In other words, the single-digit nanomolar range. `CCN1CCC[C@H]1CNC(=O)c1c(O)c(Cl)cc(Cl)c1OC` [RACLOPRIDE]: affinity was put at a Ki of 3.7 nM. This Ki is about 3.4-fold higher than that of the molecule before.
